The values below come from patent US20020137929A1, “1 - (3-heterocyclylphenyl) isothiourea, -isourea, -guanidine and -amidine herbicidal agents” (Intellectual Property Department, BASF Aktiengesellschaft, priority 1998, published 2002).

For assay [1], the system named is GLXMAW (Soybean, Williams). Nature of the assay: Preemergence herbicidal evaluation. The format is in vivo, Glycine max, (L.) Merr. cv Williams. To be noted: rated 4-5 weeks after treatment. The method in brief: (§1)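 Seeds were planted in potting soil in cups, then sprayed preemergence with the test compound in aqueous acetone at about 0.0156 to 0.500 kg per hectare. Cups were kept under greenhouse conditions and visually rated 4–5 weeks after treatment on a 0–9 scale against an untreated control.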

Assay [2] relates to IPOHE (Morningglory, Ivyleaf). Nature of the assay: Postemergence herbicidal evaluation. The assay is classed as in vivo, Ipomoea hederacea. To be noted: postemergence. The method in brief: (§2)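 Two-week-old seedlings sprayed with compound in 50/50 acetone/water plus 0.5% TWEEN 20, at about 0.0156 to 0.500 kg/ha, nozzle at 40 psi. Kept in greenhouse; rated visually 4-5 weeks after treatment on a 0-9 scale versus control, repeat tests averaged.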

For assay [3], the system named is CHEAL (Lambsquarters, Common). As to the kind of experiment: Postemergence herbicidal evaluation. The following applies: postemergence. The format is in vivo, Chenopodium album. The method in brief:
as §2

Another assay relates to ECHCG (Barnyardgrass). As to the kind of experiment: Preemergence herbicidal evaluation. The assay is classed as in vivo, Echinochloa crus-galli. To be noted: rated 4-5 weeks after treatment. The method in brief:
as §1

A further assay concerns GALAP (Galium). Nature of the assay: Preemergence herbicidal evaluation. The format is in vivo, Galium aparine. To be noted: rated 4-5 weeks after treatment. The method in brief:
as §1

With `COC(=O)COC(=O)CN1C(=O)CSC1=Nc1cc(-n2c(=O)cc(C(F)(F)F)n(C)c2=O)c(F)cc1Cl` [Compound 108, 2-{{2-Chloro-5-[3,6-dihydro-3-methyl-2,6-dioxo-4-(trifluoromethyl)-1(2H)-pyrimidinyl]-4-fluorophenyl}imino}-4-oxo-3-thiazolidineacetic acid, ester with methyl glycolate], the “Preemergence herbicidal rating GLXMAW” value is recorded as 0.0 in assay [1] (rate 0.0156 kg/ha), 2.0 in assay [1] (rate 0.0625 kg/ha), 2.0 in assay [1] (rate 0.1250 kg/ha) and 2.0 in assay [1] (rate 0.2500 kg/ha). Further, the “Herbicidal rating IPOHE” value in assay [2] (rate 0.0158 kg/ha), in assay [2] (rate 0.0315 kg/ha) and in assay [2] (rate 0.0630 kg/ha) was 9.0 throughout. Moreover, the “Herbicidal rating CHEAL” value in assay [3] (rate 0.0158 kg/ha) was determined as 4.0; in assay [3] (rate 0.0315 kg/ha), 7.0; in assay [3] (rate 0.0630 kg/ha), 9.0. The “Preemergence herbicidal rating ECHCG” value is 0.0 in the assay with ECHCG (Barnyardgrass) (rate 0.0156 kg/ha); 0.0 in the assay with ECHCG (Barnyardgrass) (rate 0.0313 kg/ha); 0.0 in the assay on ECHCG (Barnyardgrass) (rate 0.0625 kg/ha); 0.0 with ECHCG (Barnyardgrass) (rate 0.1250 kg/ha); 1.0 in the assay on ECHCG (Barnyardgrass) (rate 0.2500 kg/ha). In addition, the “Preemergence herbicidal rating GALAP” value with GALAP (Galium) (rate 0.0156 kg/ha) amounted to 1.0; in the assay with GALAP (Galium) (rate 0.0313 kg/ha), 2.0; in the assay with GALAP (Galium) (rate 0.0625 kg/ha), 6.0; in the assay with GALAP (Galium) (rate 0.1250 kg/ha) it was 7.0; in the assay on GALAP (Galium) (rate 0.2500 kg/ha) it was 9.0.
Regarding `C[C@@H](C(=O)OC(C)(C)C)N1C(=O)CSC1=Nc1cc(-n2c(=O)cc(C(F)(F)F)n(C)c2=O)c(F)cc1Cl` [Compound 75, tert-Butyl 2-{{2-chloro-5-[3,6-dihydro-3-methyl-2,6-dioxo-4-(trifluoromethyl)-1(2H)-pyrimidinyl]-4-fluorophenyl}imino}-α-methyl-4-oxo-3-thiazolidineacetate, L-], the “Preemergence herbicidal rating GLXMAW” value in assay [1] (rate 0.0156 kg/ha) amounted to 0.0; in assay [1] (rate 0.0313 kg/ha), 0.0; in assay [1] (rate 0.0625 kg/ha) it was 0.0; in assay [1] (rate 0.1250 kg/ha), 2.0; in assay [1] (rate 0.2500 kg/ha) it was 2.0. The values for the IPOHE herbicidal rating in assay [2] (rate 0.0158 kg/ha), in assay [2] (rate 0.0315 kg/ha) and in assay [2] (rate 0.0630 kg/ha) were 7.0, 7.0 and 9.0, respectively. Moreover, the CHEAL herbicidal rating in assay [3] (rate 0.0158 kg/ha), in assay [3] (rate 0.0315 kg/ha) and in assay [3] (rate 0.0630 kg/ha) was 7.0 each time. For the same molecule, the “Preemergence herbicidal rating ECHCG” value in the assay with ECHCG (Barnyardgrass) (rate 0.0156 kg/ha) is 0.0; with ECHCG (Barnyardgrass) (rate 0.0313 kg/ha), 0.0; with ECHCG (Barnyardgrass) (rate 0.0625 kg/ha), 0.0; in the assay on ECHCG (Barnyardgrass) (rate 0.1250 kg/ha), 0.0; in the assay on ECHCG (Barnyardgrass) (rate 0.2500 kg/ha), 2.0. Moreover, the “Preemergence herbicidal rating GALAP” value with GALAP (Galium) (rate 0.0156 kg/ha), with GALAP (Galium) (rate 0.0313 kg/ha), with GALAP (Galium) (rate 0.0625 kg/ha), in the assay on GALAP (Galium) (rate 0.1250 kg/ha) and with GALAP (Galium) (rate 0.2500 kg/ha) was 0.0 in each case.
